# Reference: patent publication US20180244625A1, “FUNGICIDAL COMPOSITIONS” (Syngenta Participations AG, priority 2015, published 2018)
# Read-outs that look alike come from different tables or passages of the source.
# Test system: Uncinula necator
# Test: Uncinula necator/Grape (powdery mildew on grape), preventive spray test on grape seedlings
# Format: in vivo
# Details: Erysiphe necator
# From the text: A synergistic effect exists whenever the action of an active ingredient combination is greater than the sum of the actions of the individual components. The action to be expected E for a given active ingredient combination obeys the so-called COLBY formula and can be calculated as follows (COLBY, S. R. “Calculating synergistic and antagonistic responses of herbicide combination”, Weeds, Vol. 15, pages 20-22; 1967): ppm=milligrams of active ingredient (=a.i.) per liter of spray mixture X=% action by active ingredient (A) using p ppm of active ingredient Y=% action by active ingredient (B) using q ppm of active ingredient. According to COLBY, the expected (additive) action of active ingredients (A)+(B) using p+q ppm of active ingredient is [formula] If the action actually observed (O) is greater than the expected action (E), then the action of the combination is super-additive, i.e. there is a synergistic effect. In mathematical terms, synergism corresponds to a positive value for the difference of (O-E). In the case of purely complementary addition of activities (expected activity), said difference (O-E) is zero. A negative value of said difference (O-E) signals a loss of activity compared to the expected activity. Uncinula necator/Grape (Powdery Mildew on Grape) Five-week-old grape seedlings cv. Gutedel were treated with the formulated testcompound in a spray chamber. One day after application grape plants were inoculated by shaking plants infected with grape powdery mildew above the test plants. After an incubation period of 7 days at 26° C. and 60% r. h. under a light regime of 14/10 h (light/dark) the disease incidence was assessed.
Structure (SMILES),"inhibition at 0.1 µg/mL (168 h, Compound 1.001 0.1 mg/l alone, grape seedlings cv. Gutedel, 7 days after inoculation)","inhibition at 10 pg/mL (Compound 1.001 0.00001 mg/l alone, read-out: Compound 1.001 inhibition (%))","inhibition at 0.0001 µg/mL (Compound 1.001 0.0001 mg/l alone, read-out: Compound 1.001 inhibition (%))","inhibition at 0.001 µg/mL (Compound 1.001 0.001 mg/l alone, read-out: Compound 1.001 inhibition (%))","inhibition at 0.01 µg/mL (Compound 1.001 0.01 mg/l alone, read-out: Compound 1.001 inhibition (%))",inhibition at 1 pg/mL (Flutianil 0.000001 mg/l alone),"inhibition at 10 pg/mL (Flutianil 0.00001 mg/l alone, read-out: Flutianil Inhibition (%))","inhibition at 0.0001 µg/mL (Flutianil 0.0001 mg/l alone, read-out: Flutianil Inhibition (%))","inhibition at 0.001 µg/mL (Flutianil 0.001 mg/l alone, read-out: Flutianil Inhibition (%))","inhibition at 0.01 µg/mL (Flutianil 0.01 mg/l alone, read-out: Flutianil Inhibition (%))"
"CON(C(=O)c1cn(C)nc1C(F)F)C(C)Cc1c(Cl)cc(Cl)cc1Cl (stereo not shown) [Compound 1.001, 3-(difluoromethyl)-N-methoxy-1-methyl-N-[1-methyl-2-(2,4,6-trichlorophenyl)ethyl]pyrazole-4-carboxamide]",90.4%,0%,0%,1.7%,12.9%,,,,,
"COc1ccccc1N1CCS/C1=C(/C#N)Sc1cc(C(F)(F)F)ccc1F [Flutianil, (2Z)-{[2-fluoro-5-(trifluoromethyl)phenyl]sulfanyl}[3-(2-methoxyphenyl)-1,3-thiazolidin-2-ylidene]acetonitrile]",,,,,,0%,1.3%,1%,26.8%,100%
